Results published in ChEMBL document CHEMBL3856252, “Truncated Autoinducing Peptides as Antagonists of Staphylococcus lugdunensis Quorum Sensing” (J Med Chem, 2016).
Where a SMILES comes first, the peptide text is derived from it.

Legend:
[1] = Inhibition of Staphylococcus aureus RN6390B quorum sensing system AgrC-1 using cephalosporin/nitrocefin as substrate by P3 reporter assay
[2] = Competitive inhibition of Staphylococcus aureus MW2 quorum sensing system AgrC-3 after 24 hrs in presence of mouse IgG2a by YFP reporter gene assay
[3] = Competitive inhibition of Staphylococcus aureus SA502A quorum sensing system AgrC-2 after 24 hrs in presence of mouse IgG2a by YFP reporter gene assay
[4] = Competitive inhibition of Staphylococcus aureus RN9222 quorum sensing system AgrC-1 by colorimetric analysis
[5] = Competitive inhibition of Staphylococcus aureus RN9372 quorum sensing system AgrC-2 by colorimetric analysis
[6] = Competitive inhibition of Staphylococcus aureus quorum sensing system AgrC-3 by colorimetric analysis

**Q.** With `CC[C@H](C)[C@@H]1NC(=O)[C@H](Cc2ccccc2)NC(=O)[C@H](CC(=O)O)NC(=O)[C@@H](NC(=O)[C@@H](NC(=O)[C@H](CO)NC(=O)[C@@H](N)Cc2ccc(O)cc2)[C@@H](C)O)CSC(=O)[C@H](CCSC)NC1=O` (HELM PEPTIDE1{Y.S.T.C.D.F.I.M}$PEPTIDE1,PEPTIDE1,4:R3-8:R2$$$V2.0) as the molecule, how does the IC50 [1] read?
**A.** 20 nM

**Q.** For `CC(=O)N[C@H]1CSC(=O)[C@H](Cc2ccccc2)NC(=O)[C@H](Cc2ccc(O)cc2)NC(=O)[C@H](CO)NC(=O)[C@H](C)NC1=O` (HELM PEPTIDE1{[ac].C.A.S.Y.F}$PEPTIDE1,PEPTIDE1,2:R3-6:R2$$$V2.0), which IC50 [2] is on record?
**A.** 13 nM

**Q.** What about the IC50 [3] of the same molecule?
**A.** 160 nM

**Q.** With `CC(=O)N[C@H]1CSC(=O)[C@H](Cc2ccccc2)NC(=O)[C@H](Cc2ccc(O)cc2)NC(=O)[C@H](C)NC(=O)[C@H](CC(N)=O)NC1=O` (HELM PEPTIDE1{[ac].C.N.A.Y.F}$PEPTIDE1,PEPTIDE1,2:R3-6:R2$$$V2.0) as the molecule, how does the IC50 [4] read?
**A.** 380 nM

**Q.** What about the IC50 [5] of the same molecule?
**A.** 420 nM

**Q.** And the IC50 [6]?
**A.** 40 nM
